Experimental data from the supplement of paper PMC10307832.

Assays:
Assay in all cases: relative viability (nuclei count vs DMSO), 5 days (fraction); higher = more cells survive
Afatinib = compound: CN(C)C/C=C/C(=O)Nc1cc2c(Nc3ccc(F)c(Cl)c3)ncnc2cc1O[C@H]1CCOC1 [Afatinib]
In short: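 Cells of lung cancer lines were placed in 1536-well plates and kept overnight at 37 °C. Pinning then delivered five library-drug doses (not always all listed), spaced by √10, onto plates anchored with vehicle, and the cells were left 5 days without changing medium. One step fixed, permeabilised and stained them with Hoechst, and MetaXpress counted nuclei in 4× images. Viability, as a median over plates, is treated-well nuclei divided by vehicle-well nuclei, with acceptance only at control CV below 25% and at least one doubling.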

Afatinib + Palbociclib = compound: CN(C)C/C=C/C(=O)Nc1cc2c(Nc3ccc(F)c(Cl)c3)ncnc2cc1O[C@H]1CCOC1 [Afatinib] + CC(=O)c1c(C)c2cnc(Nc3ccc(N4CCNCC4)cn3)nc2n(C2CCCC2)c1=O [Palbociclib] (partner 0.5 µM)
In short: (§1)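 Dosing by pin tool came one day after lung cancer cell lines were seeded in 1536-well plates, using either one drug or a fixed anchor-drug dose plus five library-drug doses (not always all listed) in √10 steps. After 5 days, nuclei were counted on 4× images. Relative viability is treated-well nuclei count divided by vehicle-well nuclei count, and values are medians of duplicate plates.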

Afatinib + Foretinib = compound: CN(C)C/C=C/C(=O)Nc1cc2c(Nc3ccc(F)c(Cl)c3)ncnc2cc1O[C@H]1CCOC1 [Afatinib] + COc1cc2c(Oc3ccc(NC(=O)C4(C(=O)Nc5ccc(F)cc5)CC4)cc3F)ccnc2cc1OCCCN1CCOCC1 [Foretinib] (partner 0.25 µM)
In short: as §1

Afatinib + OSI-027 = compound: CN(C)C/C=C/C(=O)Nc1cc2c(Nc3ccc(F)c(Cl)c3)ncnc2cc1O[C@H]1CCOC1 [Afatinib] + COc1cccc2cc(-c3nc([C@H]4CC[C@H](C(=O)O)CC4)n4ncnc(N)c34)[nH]c12 [OSI-027] (partner 0.5 µM)
In short: as §1

Cell Line | relative viability (Afatinib; 0.005 µM) | relative viability (Afatinib; 0.01581 µM) | relative viability (Afatinib; 0.05 µM) | relative viability (Afatinib; 0.1581 µM) | relative viability (Afatinib; 0.5 µM) | relative viability (Afatinib + Palbociclib; first compound 0.005 µM) | relative viability (Afatinib + Palbociclib; first compound 0.01581 µM) | relative viability (Afatinib + Palbociclib; first compound 0.05 µM) | relative viability (Afatinib + Palbociclib; first compound 0.1581 µM) | relative viability (Afatinib + Palbociclib; first compound 0.5 µM) | relative viability (Afatinib + Foretinib; first compound 0.005 µM) | relative viability (Afatinib + Foretinib; first compound 0.01581 µM) | relative viability (Afatinib + Foretinib; first compound 0.05 µM) | relative viability (Afatinib + Foretinib; first compound 0.1581 µM) | relative viability (Afatinib + Foretinib; first compound 0.5 µM) | relative viability (Afatinib + OSI-027; first compound 0.005 µM) | relative viability (Afatinib + OSI-027; first compound 0.01581 µM) | relative viability (Afatinib + OSI-027; first compound 0.05 µM) | relative viability (Afatinib + OSI-027; first compound 0.1581 µM) | relative viability (Afatinib + OSI-027; first compound 0.5 µM)
NCI-H23 | 1.1 | 0.976 | 0.922 | 0.97 | 0.792 | 0.561 | 0.469 | 0.482 | 0.486 | 0.448 | 0.99 | 1.02 | 1.02 | 0.847 | 0.951 | 0.585 | 0.611 | 0.54 | 0.599 | 0.47
NCI-H322M | 0.705 | 0.495 | 0.533 | 0.545 | 0.419 | 0.467 | 0.434 | 0.394 | 0.358 | 0.378 | 0.765 | 0.566 | 0.493 | 0.535 | 0.449 | 0.511 | 0.422 | 0.463 | 0.356 | 0.397
NCI-H358 | 0.825 | 0.566 | 0.455 | 0.282 | 0.302 | 0.14 | 0.111 | 0.12 | 0.118 | 0.0955 | 0.512 | 0.423 | 0.286 | 0.167 | 0.197 | 0.484 | 0.316 | 0.239 | 0.19 | 0.189
NCI-H441 | 1.08 | 0.997 | 1.18 | 0.982 | 0.948 | 0.234 | 0.231 | 0.163 | 0.183 | 0.207 | 1.22 | 0.837 | 0.987 | 0.742 | 0.75 | 0.677 | 0.582 | 0.499 | 0.481 | 0.426
NCI-H460 | 1.01 | 1 | 0.996 | 1.01 | 1 | 0.165 | 0.175 | 0.237 | 0.184 | 0.242 | 0.987 | 0.895 | 0.943 | 1.07 | 0.978 | 0.716 | 0.629 | 0.676 | 0.705 | 0.666
NCI-H520 | 1.08 | 0.978 | 0.995 | 1 | 0.96 | 0.245 | 0.241 | 0.229 | 0.219 | 0.229 | 0.83 | 0.656 | 0.698 | 0.812 | 0.744 | 0.357 | 0.198 | 0.201 | 0.261 | 0.234
NCI-H647 | 0.999 | 0.878 | 0.998 | 0.968 | 1.04 | 0.37 | 0.335 | 0.385 | 0.368 | 0.312 | 1.21 | 1.1 | 1.21 | 1.11 | 1.14 | 0.582 | 0.629 | 0.487 | 0.705 | 0.554
NCI-H650 | 1.06 | 0.974 | 1.07 | 0.89 | 0.875 | 0.343 | 0.34 | 0.395 | 0.331 | 0.336 | 1.13 | 0.997 | 1.06 | 1.02 | 0.998 | 0.557 | 0.475 | 0.566 | 0.516 | 0.503
NCI-H661 | 1.02 | 0.863 | 0.831 | 0.626 | 0.691 | 0.387 | 0.339 | 0.347 | 0.34 | 0.337 | 1.06 | 0.874 | 0.738 | 0.75 | 0.625 | 0.558 | 0.458 | 0.528 | 0.386 | 0.367
NCI-H727 | 0.787 | 0.765 | 0.758 | 0.694 | 0.837 | 0.586 | 0.637 | 0.6 | 0.506 | 0.544 | 0.82 | 0.588 | 0.762 | 0.709 | 0.752 | 0.699 | 0.447 | 0.511 | 0.49 | 0.56
NCI-H838 | 1.01 | 0.966 | 0.988 | 0.918 | 1.05 | 0.216 | 0.227 | 0.242 | 0.214 | 0.233 | 1.07 | 1.01 | 1.11 | 1.02 | 1.26 | 0.445 | 0.353 | 0.371 | 0.365 | 0.363
NCI-H1355 | 0.976 | 0.959 | 0.943 | 0.849 | 0.893 | 0.397 | 0.338 | 0.351 | 0.274 | 0.315 | 0.947 | 0.636 | 0.824 | 0.773 | 0.751 | 0.388 | 0.341 | 0.348 | 0.361 | 0.276
NCI-H1395 | 1.07 | 0.744 | 1 | 1.05 | 0.849 | 0.592 | 0.572 | 0.625 | 0.591 | 0.606 | 0.939 | 1.05 | 0.973 | 0.914 | 0.937 | 0.587 | 0.561 | 0.688 | 0.681 | 0.592
NCI-H1437 | 1.02 | 0.987 | 0.993 | 0.984 | 0.997 | 0.305 | 0.294 | 0.281 | 0.31 | 0.341 | 1.26 | 1.27 | 1.24 | 1.31 | 1.33 | 0.988 | 0.848 | 0.894 | 0.873 | 0.9
NCI-H1650 | 0.755 |  | 0.896 | 0.696 | 0.736 | 0.299 | 0.257 | 0.305 | 0.347 | 0.269 | 0.871 |  | 0.9 | 0.671 | 0.774 | 0.476 |  | 0.557 | 0.439 | 0.397
NCI-H1651 | 1.07 | 0.949 | 0.941 | 0.961 | 0.915 | 0.561 | 0.508 | 0.501 | 0.495 | 0.459 | 0.825 | 0.636 | 0.822 | 0.748 | 0.746 | 0.688 | 0.618 | 0.61 | 0.67 | 0.627
